# Test results as given in patent US10081609B2, “Compounds for inducing proliferation and differentiation of cells, and methods of use thereof” (The Broad Institute, Inc., priority 2013, dated 2018).
# Tests used:
# [1] = system: human primary hepatocytes; test: High-throughput liver platform, primary screening: hepatocyte proliferation by automated high-content imaging (hepatocyte nuclei numbers); format: cell-based; conditions: primary screening
# Procedure: In order to avoid species-specific differences and cell line mutations, the screen was conducted with human primary hepatocytes. Traditionally, chemical screening on such cells has been hindered by their availability in large quantities as well as their rapid loss of viability and phenotype in vitro. Recent advances in cryopreservation technologies allowed enough primary human cells to be stored for screening; these cells are maintained through co-cultivation with non-parenchymal cells. Co-cultures of primary human hepatocytes with murine embryonic J2-3T3 fibroblasts were recently shown to maintain normal hepatocyte phenotype for weeks. These in vitro platforms consisted of hepatocytes surrounded by a co-planar population of fibroblasts. While sufficient for stabilizing hepatocyte functions in vitro, such platforms may limit normal hepatocyte expansion due to contact inhibition. Thus, for this screen, a sparse population of hepatocytes was co-cultivated on top of a confluent feeder layer of J2-3T3 fibroblasts within 384-well plates (FIG. 1A top). This screening platform stabilized hepatocyte phenotypic functions in vitro (FIG. 1A bottom) and was compatible with two separate high-throughput readouts developed for this screen.
# The primary readout detected hepatocyte proliferation via automated high-content imaging. This assay quantified hepatocyte nuclei numbers, using nuclear morphologies to separate the hepatocyte and fibroblast subpopulations that co-exist within the screening platform. When visualized with Hoechst stain, hepatocyte nuclei were smaller and more uniform in texture while fibroblast nuclei were larger and punctated (FIG. 1A bottom). Leveraging this distinction, automated image analyses was developed that utilized machine learning algorithms to classify nuclei types and tabulate hepatocyte nuclei numbers. […] Besides quantifying hepatocyte nuclei that have completed mitosis, the number of nuclei in the process of mitosis were also quantified. Two additional analysis pipelines were built to detect nuclear morphologies consistent with cells undergoing metaphase and anaphase.
# (§1) FIG. 1B top summarizes the workflow of the screen. Primary screening was done on human primary hepatocytes, preconditioned for seven days by non-parenchymal cells in the screening platform. Upon stabilization in vitro, cultures were treated with the chemical library for 48 hours. All compounds were tested in duplicates, at a single concentration of 15 μM. This single concentration was selected via a pilot screen of ˜2,000 small molecules. All 12,480 small molecules were initially tested on a single donor of cryopreserved hepatocytes (donor a) in order to eliminate noise from donor-to-donor variability. Following compound treatment, media supernatants were collected for functional analyses via ELISA and cultures were fixed in 4% paraformaldehyde for proliferation analyses via imaging.
# To identify proliferation hits, three image-based readouts—one each to quantify the number of (1) hepatocyte nuclei in interphase, (2) nuclei in metaphase and (3) nuclei in anaphase—were integrated. z Scores were converted into p values, which were then used to generate ranked lists of compounds based on the efficacy and consistency of effects across the different proliferation readouts. Efficacy was assessed by the product of p values (pprod=pinter×pmeta×pana); consistency was evaluated by the maximum of p values (pmax=max(pinter, pmeta, pana). Compounds were considered proliferation hits if pprod<1×10^−6 and pmax<0.25. Functional hits were selected by an ELISA […]. Compounds with ELISA z>3.0 were eliminated as toxic. 93 compounds met all hit selection criteria, qualifying as Functional Proliferation Hits (FPH); FIG. 1B bottom illustrates the types of compounds that constituted this set of hits.
# [2] = system: iPS-derived endothelial cells; test: Differentiation of iPS-derived endothelial cells (nitric oxide); format: cell-based
# Procedure: Cells were assayed for nitric oxide (NO), a mature marker for endothelial cells. CB=FPH2, M=FH1, E=PH1, while Null and DMSO are control runs with no additive and vehicle only, respectively.
# [3] = system: iHeps; test: Gene expression profiles of treated iHeps (Luminex); format: cell-based, human
# Procedure: Cells were lysed using RLT buffer (Qiagen) or Trizol (Invitrogen) and purified using the Mini-RNeasy kit (Qiagen). Gene expression was determined using Luminex analysis, as previously described. Briefly, total RNA was immobilized on a Qiagen turbo capture 384-well plate, and reverse-transcribed using oligodT priming A biotinylated FlexMap tag sequence unique to each gene of interest and a phosphorylated downstream probe were then added to resulting cDNAs to generate biotinylated FlexMap-tagged amplicons. Universal PCR was then performed for 35 cycles using a biotinylated T7 forward primer and T3 reverse primer in buffer with dNTPs and Taq polymerase. FlexMap microsphere beads conjugated with antitag oligonucleotides were then added and allowed to hybridize. Amplicons were captured by streptavidin-phyoerythrin, and 100 events per bead were analyzed for internal bead color and phyoerythrin reporter fluorescence on a Luminex FlexMap 3D analyzer. Data for replicate loadings, expressed in mean fluorescent intensity of at least 100 beads per sample, were scaled to the human transferrin gene and row-normalized for heat map representation using GeneE open software (Broad Institute).
# (§2) The ability of compounds of the invention to affect the differentiation and maturation of iHeps was tested. Undifferentiated iPS cells were cultured on Matrigel, supported by primary mouse embryonic fibroblasts. Once confluent, iPS cells were transitioned to differentiation media, with sequential addition of growth factors (Activin A, BMP-4, bFGF, HGF, and OSM) to guide differentiation, first into endoderm, then into hepatic progenitor cells and finally into iHeps. Compound treatment started on day 21 post initiation of differentiation and acted over a period of 9 days. FH1 and FPH2 were used to treat iHeps. FH1 doubled albumin secretion during primary screening (FIG. 4A left) in a dose-responsive manner (FIG. 4A right).
# Euclidian clustering analyses groups untreated cells with fetal hepatocytes and treated cells with mature hepatocytes (FIG. 4C left). Of particular interest are ABC transporters, CYP3A4 and GSTP1 expression levels. ABC transporters are known to mature after birth. ABCB11, also known as bile-salt export pump (BSEP), increased ˜3 fold and ˜4 fold in expression levels with FPH2 and FH1 treatment, respectively, compared to untreated iHeps. In contrast, GSTP1 expression, whose levels decrease with maturity, remained low upon FPH2 and FH1 treatment compared to untreated iHeps (FIG. 4C right).
# [4] = system: iHeps; test: Differentiation of human iPS-derived hepatocytes (iHeps): morphology and immunofluorescent staining; format: cell-based
# Procedure: as §2
# To examine the effects of FH1 and FPH2 at the protein level, AFP, albumin and CYP3A4 levels weew visualized via immunofluorescent staining. […] This is in agreement with primary screening results as well as earlier morphological findings. Untreated cultures had islands that double stain for albumin and the fetal marker AFP, with very little presence of the mature marker CYP3A4.
# [5] = system: human primary hepatocytes; test: High-throughput liver platform, primary screening: secreted albumin by competitive ELISA; format: cell-based
# From the text: In order to evaluate the phenotype of treated cells, a secondary readout was included to quantify hepatocyte functions via competitive ELISA. This biochemical assay measured the level of secreted albumin as a marker for protein synthesis functions of the cultured hepatocytes (FIG. 1A bottom).
# as §1
structure (smiles),measurement,setting,value
"Cc1ccc(Cl)cc1N(CC(=O)Nc1c(F)cccc1F)S(C)(=O)=O [FPH2, 2-(N-(5-chloro-2-methylphenyl)methylsulfonamido)-N-(2,6-difluorophenyl)acetamide]",number of nuclei undergoing mitosis,[1],elevated
same,increase in hepatocyte nuclei numbers during primary screening,"[1]; 15 μM, 48 hours",1.5 ×
same,differentiation of iPS-derived endothelial cells (nitric oxide),[2],induce differentiation
same,ABCB11 (BSEP) expression level increase compared to untreated iHeps,[3],~3 fold
same,GSTP1 expression compared to untreated iHeps,[3],remained low
same,albumin staining (immunofluorescent),[4]; treated iHeps,dramatic increases
same,hepatocyte phenotype of treated iHeps,"[4]; treatment from day 21, 9 days",more mature hepatocyte phenotypes
same,albumin secretion during primary screening,[5],"similar, but weaker effects"
